# In patent US12150938B2, “Biomarker of polycystic kidney disease and uses thereof” (Genzyme Corporation, priority 2015, dated 2024):
# How the values were obtained:
# AMBP protein = assay: Immunoblot of AMBP protein levels in urine and kidney samples of treated jck mice; format: in vivo, mouse
# Experimental: Kidney samples were homogenized in RIPA buffer (Boston BioProducts) including 1 mM DTT, 5 mM EDTA, 2 mM NaF, 1 mM Na3VO4 (all supplied by Sigma-Aldrich), Pefabloc SC and Complete Proteinase Inhibitor Cocktail (both from Roche Applied Science). Protein concentrations were determined by BCA protein assay (Pierce). Urine samples were briefly centrifuged at 3000 RPM for 10 minutes at 4° C. (Beckman Coulter Allegra 6A) to remove cellular debris. An equal volume of urine was diluted in 5× Laemmli Buffer (15% SDS, 0.575 M sucrose, 0.325 M Tris, pH 6.8, 5% beta-mercaptoethanol and 0.002% bromophenol blue). Equal amounts of protein and urine were loaded onto 4-14% NuPage Bis-Tris gels following the manufacturer's protocols (Invitrogen). Membranes were blocked with 5% nonfat milk in Tris-buffered saline (TBS) including 0.1% Tween-20 and incubated with primary antibodies overnight at 4° C. Primary antibodies were detected with horseradish peroxidase-labeled secondary antibodies (Promega). Immunoreactive proteins were detected by enhanced chemiluminescence (GE Healthcare). Primary antibodies to the following proteins were used: α-1-microglobulin and β-actin (Abcam), and GAPDH (US Biological).
# Roscovitine was administered ad libitum to jck mice from 26 to 64 days of age by mixing in powdered 5053 diet at 0.2%. The GCSi (Genz-123346) was administered ad libitum to jck mice from day 26 to day 64 after birth by mixing in powdered 5053 diet at 0.225% (Natoli et al., Nature Med. 16:788-792, 2010). Chronic and pulse treatment with S-CR8 was performed by daily intraperitoneal injection with 24 mg/kg starting from day 26 after birth. Urine was collected for 24 hours consecutively (at day 26, 33, 41, 48, and 64 after birth) over a 5-week period from animals with a range of disease severity measured by kidney to body weight ratio (K/BW) and cystic percentage (C %).
# A second set of experiments was performed in jck mice to determine a second CDK inhibitor, S-CR8, would decrease both AMBP levels and kidney volume. In these experiments, the jck animals were administered one of the following treatment schedules starting at day 26 after birth: (A) daily intraperitoneal injection with 24 mg/kg S-CR8 for five weeks; (B) daily intraperitoneal injection with 24 mg/kg S-CR8 for three weeks, and two weeks with no treatment; and (D) daily intraperitoneal injection with 24 mg/kg S-CR8 for one week and four weeks with no treatment (FIG. 18). As a control, jck animals were administered a vehicle between day 26 to day 64 after birth.
# jck mice = assay: Treatment of jck mice (PKD model): kidney volume / cyst volume; format: in vivo, mouse
# Experimental: C57BL/6J jck/+ mice were maintained for mating. Cystic jck/jck mice were genotyped as previously described (Smith et al., J. Am. Soc. Nephrol. 17:2821-2831, 2006). […] conditional knockout mice were generated as described previously (Natoli et al., Nature Med. 16:788-792, 2010). The […] gene was deleted by inducing the Cre recombinase activity with tamoxifen delivered in sunflower oil (Sigma-Aldrich, St. Louis, MO), on postnatal day 1 with 100 mg/kg.
# A jck mouse model of PKD (Smith et al., J. Am. Soc. Nephrol. 17:2821-2831, 2006) was used to assess the expression of AMBP. Jck mice are characterized by development of moderately progressive renal cystic disease. Kidneys from the jck mouse model are enlarged by day 26 after birth and have multiple cysts. […] Renal function in jck mice, as measured by serum creatinine and blood urea nitrogen, progressively elevates over time. […] Cysts originating from the proximal tubules are not detected in jck mice (Smith et al., J. Am. Soc. Nephrol. 17:2821-2831, 2006).
# Roscovitine was administered ad libitum to jck mice from 26 to 64 days of age by mixing in powdered 5053 diet at 0.2%. […] Urine was collected for 24 hours consecutively (at day 26, 33, 41, 48, and 64 after birth) over a 5-week period from animals with a range of disease severity measured by kidney to body weight ratio (K/BW) and cystic percentage (C %). […]
# [1] = 0.225% in diet day 26 to day 64 after birth, day 64, vs vehicle (FIG. 22)
# [2] = oral 0.2% in feed day 26 to day 64 after birth, day 64, vs vehicle (FIG. 17)
compound,measurement,setting,value
CCCCCCCCC(=O)N[C@H](CN1CCCC1)[C@H](O)c1ccc2c(c1)OCCO2 [Genz-123346],AMBP levels in kidney tissue samples,AMBP protein; [1],decrease
same,AMBP levels in urine samples,AMBP protein; [1],decrease
CC[C@@H](CO)Nc1nc(NCc2ccc(-c3ccccn3)cc2)c2ncn(C(C)C)c2n1 [S-CR8],"cyst volume (cystic volume as percentage of body weight, FIG. 19)","jck mice; daily intraperitoneal 24 mg/kg from day 26, all tested schedules (A 5 weeks, B 3 weeks, D 1 week), vs vehicle",decrease
same,urine AMBP protein levels,"AMBP protein; daily intraperitoneal 24 mg/kg from day 26, all tested schedules (A, B, D), urine at day 64, vs vehicle (FIGS. 20 and 21)",decrease
CC[C@H](CO)Nc1nc(NCc2ccccc2)c2ncn(C(C)C)c2n1 [roscovitine],"kidney volume (kidney to body weight, FIG. 16)","jck mice; oral 0.2% in feed day 26 to day 64 after birth, measured at day 64, vs vehicle",decrease
same,AMBP protein levels in kidney samples,AMBP protein; [2],decrease
same,AMBP protein levels in urine,AMBP protein; [2],decrease
